Earlier results in patent US6933291B2, “Cholesterol lowering supplement” (N.V. Nutricia, priority 2000, dated 2005).
One block for each compound: values may come before it.

Assays:
[1] = case reports from the literature
[2] = rats
[3] = system: HMG-CoA reductase; settings: rats given cholesterol

Compound: CC[C@H](C)C(=O)O[C@H]1C[C@@H](C)C=C2C=C[C@H](C)[C@H](CC[C@@H]3C[C@@H](O)CC(=O)O3)[C@H]21 [Lovastatin, lovastatin]
adverse effect reported in patients [1]: liver failure

Compound: CC[C@H](CC[C@@H](C)[C@H]1CC[C@H]2[C@@H]3CC=C4C[C@@H](O)CC[C@]4(C)[C@H]3CC[C@]12C)C(C)C [beta-sitosterol]
cholesterol absorption (effect in words) [2]: inhibited | cholesterol synthesis ([2]; increased from 20.0 mg/day): 28.8 mg/day

HMG-CoA reductase activity inhibited [3]: 80%
Compound: CC(C)CCC[C@@H](C)[C@H]1CC[C@H]2[C@@H]3CC=C4C[C@@H](O)CC[C@]4(C)[C@H]3CC[C@]12C [cholesterol]
conversion of cholesterol to bile acids ([2]; enhanced from 13.7 mg/day on feeding cholesterol): 27.3 mg/day | cholesterol absorption ([2]; increased from 1.2 mg/day on feeding cholesterol): 70 mg/day
